This note sets out measurements from ChEMBL document CHEMBL6134891, “Thienopyrimidinone Derivatives as a GluN2B/C/D Biased, Positive Allosteric Modulator of the N-Methyl-d-Aspartate Receptor” (J Med Chem, 2025).

Assay [1] deals with Glutamate receptor ionotropic, NMDA 2B (Rattus norvegicus, UniProt P35439+Q00960).
Description: Positive allosteric modulation of recombinant rat GluN2B receptor expressed in Xenopus oocytes assessed as glutamate/glycine-induced potentiation of current by 2EVC method
The target in assay [2] is Glutamate receptor ionotropic, NMDA 2C (Rattus norvegicus, UniProt P35439+Q00961).
Description: Positive allosteric modulation of recombinant rat GluN2C receptor expressed in Xenopus oocytes assessed as glutamate/glycine-induced potentiation of current by 2EVC method
For assay [3], the target named is Glutamate receptor ionotropic, NMDA 2D (Rattus norvegicus, UniProt P35439+Q62645).
Glutamate receptor ionotropic, NMDA 2D, sequence (Q62645 whole entry, one chain of several): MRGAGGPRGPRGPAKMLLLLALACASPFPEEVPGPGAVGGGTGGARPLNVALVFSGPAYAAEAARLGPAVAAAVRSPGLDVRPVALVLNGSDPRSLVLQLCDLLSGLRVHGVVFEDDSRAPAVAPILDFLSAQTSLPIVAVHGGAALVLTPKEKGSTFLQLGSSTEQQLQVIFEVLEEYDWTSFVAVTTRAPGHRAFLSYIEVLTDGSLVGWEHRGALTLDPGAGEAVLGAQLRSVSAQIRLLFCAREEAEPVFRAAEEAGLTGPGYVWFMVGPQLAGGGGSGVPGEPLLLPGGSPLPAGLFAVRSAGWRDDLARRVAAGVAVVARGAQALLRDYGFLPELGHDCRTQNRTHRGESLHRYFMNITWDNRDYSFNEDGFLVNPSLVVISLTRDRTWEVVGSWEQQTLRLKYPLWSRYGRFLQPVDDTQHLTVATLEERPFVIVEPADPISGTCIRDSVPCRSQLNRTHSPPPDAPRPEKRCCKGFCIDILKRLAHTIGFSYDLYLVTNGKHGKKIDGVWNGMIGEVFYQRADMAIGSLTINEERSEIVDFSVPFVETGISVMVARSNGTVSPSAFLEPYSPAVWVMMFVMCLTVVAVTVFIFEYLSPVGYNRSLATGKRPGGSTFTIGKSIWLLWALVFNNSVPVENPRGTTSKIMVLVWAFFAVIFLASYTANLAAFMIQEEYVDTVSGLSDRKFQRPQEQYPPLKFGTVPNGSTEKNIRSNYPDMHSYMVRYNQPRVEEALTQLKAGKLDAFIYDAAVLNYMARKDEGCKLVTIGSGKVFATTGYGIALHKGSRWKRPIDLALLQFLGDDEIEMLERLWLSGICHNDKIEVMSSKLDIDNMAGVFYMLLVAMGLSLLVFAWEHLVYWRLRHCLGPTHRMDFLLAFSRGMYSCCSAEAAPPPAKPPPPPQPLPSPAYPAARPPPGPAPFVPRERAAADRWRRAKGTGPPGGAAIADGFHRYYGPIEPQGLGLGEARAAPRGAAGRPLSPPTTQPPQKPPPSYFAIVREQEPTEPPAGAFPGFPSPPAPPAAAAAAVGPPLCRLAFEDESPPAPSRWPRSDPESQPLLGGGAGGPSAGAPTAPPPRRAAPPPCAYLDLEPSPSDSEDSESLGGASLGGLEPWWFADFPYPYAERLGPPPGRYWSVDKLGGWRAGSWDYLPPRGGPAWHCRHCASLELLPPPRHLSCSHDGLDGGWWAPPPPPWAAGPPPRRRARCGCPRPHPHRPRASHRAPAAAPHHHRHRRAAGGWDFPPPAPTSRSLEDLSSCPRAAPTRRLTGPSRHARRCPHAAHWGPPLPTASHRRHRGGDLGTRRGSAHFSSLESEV
Description: Positive allosteric modulation of recombinant rat GluN2D receptor expressed in Xenopus oocytes assessed as glutamate/glycine-induced potentiation of current by 2EVC method

Glutamate receptor ionotropic, NMDA 2C, sequence (Q00961 whole entry, one chain of several): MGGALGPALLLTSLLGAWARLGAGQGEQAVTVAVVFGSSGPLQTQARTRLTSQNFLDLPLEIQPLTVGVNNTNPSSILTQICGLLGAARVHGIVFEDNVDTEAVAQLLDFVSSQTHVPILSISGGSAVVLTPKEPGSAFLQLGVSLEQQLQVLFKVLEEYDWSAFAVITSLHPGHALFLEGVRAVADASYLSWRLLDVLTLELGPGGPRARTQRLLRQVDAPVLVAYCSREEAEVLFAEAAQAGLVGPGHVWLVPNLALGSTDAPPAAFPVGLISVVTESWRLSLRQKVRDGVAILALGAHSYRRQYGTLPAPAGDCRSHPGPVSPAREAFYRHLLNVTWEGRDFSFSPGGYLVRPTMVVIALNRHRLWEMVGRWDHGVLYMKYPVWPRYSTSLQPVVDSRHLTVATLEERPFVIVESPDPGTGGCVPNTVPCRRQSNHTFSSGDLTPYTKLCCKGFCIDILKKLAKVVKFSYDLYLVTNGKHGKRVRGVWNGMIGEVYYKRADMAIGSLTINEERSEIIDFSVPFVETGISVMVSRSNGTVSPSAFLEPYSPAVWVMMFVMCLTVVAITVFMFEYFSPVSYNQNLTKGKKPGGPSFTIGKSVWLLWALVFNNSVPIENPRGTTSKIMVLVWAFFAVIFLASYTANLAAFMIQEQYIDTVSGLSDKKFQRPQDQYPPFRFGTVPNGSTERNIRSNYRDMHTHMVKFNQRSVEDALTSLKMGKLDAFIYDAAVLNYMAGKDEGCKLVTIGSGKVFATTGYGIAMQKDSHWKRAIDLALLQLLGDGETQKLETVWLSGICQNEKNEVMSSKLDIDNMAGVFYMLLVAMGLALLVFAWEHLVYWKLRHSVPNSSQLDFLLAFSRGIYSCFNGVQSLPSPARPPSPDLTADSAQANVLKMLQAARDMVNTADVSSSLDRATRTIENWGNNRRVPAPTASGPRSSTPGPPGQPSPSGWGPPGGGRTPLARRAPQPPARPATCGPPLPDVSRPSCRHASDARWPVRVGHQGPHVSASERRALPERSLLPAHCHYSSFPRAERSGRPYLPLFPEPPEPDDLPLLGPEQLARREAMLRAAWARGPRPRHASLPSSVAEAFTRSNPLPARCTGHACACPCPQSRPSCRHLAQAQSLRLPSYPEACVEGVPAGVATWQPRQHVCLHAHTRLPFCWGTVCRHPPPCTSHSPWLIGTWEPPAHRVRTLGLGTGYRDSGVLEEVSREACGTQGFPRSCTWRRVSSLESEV
Glutamate receptor ionotropic, NMDA 2B, sequence (Q00960 whole entry, one chain of several): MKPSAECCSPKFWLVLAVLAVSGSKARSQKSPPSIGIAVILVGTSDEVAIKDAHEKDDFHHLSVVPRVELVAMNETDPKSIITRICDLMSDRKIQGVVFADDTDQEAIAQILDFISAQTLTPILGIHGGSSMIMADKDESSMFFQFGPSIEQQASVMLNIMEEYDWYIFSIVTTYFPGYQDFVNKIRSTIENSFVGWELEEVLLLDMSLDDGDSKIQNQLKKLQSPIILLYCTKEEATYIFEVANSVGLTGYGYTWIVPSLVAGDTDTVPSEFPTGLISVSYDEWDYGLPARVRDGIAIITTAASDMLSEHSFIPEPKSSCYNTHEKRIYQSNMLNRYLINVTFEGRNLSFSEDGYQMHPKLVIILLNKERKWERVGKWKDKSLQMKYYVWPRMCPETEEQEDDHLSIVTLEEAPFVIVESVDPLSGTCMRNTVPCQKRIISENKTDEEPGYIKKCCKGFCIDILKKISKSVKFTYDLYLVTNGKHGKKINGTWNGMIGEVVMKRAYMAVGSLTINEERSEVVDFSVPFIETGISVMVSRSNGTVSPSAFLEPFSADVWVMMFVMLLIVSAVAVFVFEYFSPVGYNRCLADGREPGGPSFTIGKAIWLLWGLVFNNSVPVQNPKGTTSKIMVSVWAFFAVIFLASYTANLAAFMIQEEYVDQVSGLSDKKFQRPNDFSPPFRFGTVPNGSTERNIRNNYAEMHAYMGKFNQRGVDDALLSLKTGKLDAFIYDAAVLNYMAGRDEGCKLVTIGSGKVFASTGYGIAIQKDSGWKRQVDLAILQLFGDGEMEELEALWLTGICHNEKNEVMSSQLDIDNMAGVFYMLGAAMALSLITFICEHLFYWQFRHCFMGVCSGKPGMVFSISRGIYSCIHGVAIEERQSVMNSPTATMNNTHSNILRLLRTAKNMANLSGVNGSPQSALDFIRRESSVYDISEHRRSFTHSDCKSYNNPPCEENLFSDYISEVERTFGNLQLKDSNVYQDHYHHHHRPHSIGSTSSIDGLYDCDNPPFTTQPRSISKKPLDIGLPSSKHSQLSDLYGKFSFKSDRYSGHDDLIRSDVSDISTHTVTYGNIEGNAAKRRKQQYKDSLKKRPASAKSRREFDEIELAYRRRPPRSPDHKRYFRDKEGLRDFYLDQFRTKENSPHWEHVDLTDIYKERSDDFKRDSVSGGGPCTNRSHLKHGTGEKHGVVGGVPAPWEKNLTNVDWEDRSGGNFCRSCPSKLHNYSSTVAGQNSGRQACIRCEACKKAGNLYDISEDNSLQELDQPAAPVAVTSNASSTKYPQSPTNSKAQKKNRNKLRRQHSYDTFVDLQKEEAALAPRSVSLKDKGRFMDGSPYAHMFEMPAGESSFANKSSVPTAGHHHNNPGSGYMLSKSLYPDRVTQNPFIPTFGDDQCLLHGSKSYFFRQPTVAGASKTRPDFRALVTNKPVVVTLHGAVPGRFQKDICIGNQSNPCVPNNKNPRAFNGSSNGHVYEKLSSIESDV

Consider `Cc1sc2ncn(CC(=O)N3CC(C)(F)C3)c(=O)c2c1-c1cc(F)cc(Cl)c1`, for which the EC50 stood at 1.6 µM in assay [1], 9.4 µM in assay [2] and 7.4 µM in assay [3].

Turning to `Cc1sc2ncn(CC(=O)N3CCC(C)C3)c(=O)c2c1-c1cccc(Br)c1` (stereo not drawn), the values for the EC50 in assay [1], in assay [2] and in assay [3] were 2.5 µM, 6.6 µM and 13 µM, respectively.

In the case of `Cc1sc2ncn(CC(=O)N3CC(C)(F)C3)c(=O)c2c1-c1ccc(F)c(Cl)c1`, the EC50 in assay [1] was 0.7 µM; in assay [2] it was 1.2 µM; in assay [3], 2.1 µM.

Regarding `CCC1(F)CN(C(=O)Cn2cnc3sc(C)c(-c4cccc(Br)c4)c3c2=O)C1`, the results for the EC50 in assay [1], in assay [2] and in assay [3] were 0.97 µM, 2.4 µM and 3.6 µM, respectively.

In the case of `Cc1sc2ncn(CC(=O)N3CC(C)(F)C3)c(=O)c2c1-c1cccc(Br)c1`, the EC50 was 0.78 µM in assay [1], 2 µM in assay [2] and 2.8 µM in assay [3].

Turning to `Cc1sc2ncn(CC(=O)N3CC(C)(F)C3)c(=O)c2c1-c1cccc(Cl)c1`, the EC50 in assay [1] was found to be 1.2 µM; in assay [2], 2.2 µM; in assay [3], 4.9 µM.

In turn, `Cc1sc2ncn(CC(=O)N3CC[C@@H](F)C3)c(=O)c2c1-c1cccc(Br)c1` came in with an EC50 in assay [1] of 14 µM.

Take `Cc1sc2ncn(CC(=O)N3CC(C)(F)C3)c(=O)c2c1-c1cccc(C(F)(F)F)c1`: the EC50 was determined as 1.1 µM in assay [1], 2.2 µM in assay [2] and 3.8 µM in assay [3].

On to `Cc1sc2ncn(CC(=O)N3CC(C)(F)C3)c(=O)c2c1-c1cc(Cl)ccc1F`, for which the EC50 in assay [1] worked out at 1.5 µM; in assay [2], 3.9 µM; in assay [3], 4.5 µM.

Take `Cc1sc2ncn(CC(=O)N3CC(C)(F)C3)c(=O)c2c1-c1ccc2ccn(C)c2c1`: in assay [1], the EC50 is 10 µM.

`Cc1sc2ncn(CC(=O)N3CC(C)(C)C3)c(=O)c2c1-c1cccc(Br)c1`: the EC50 worked out at 2.8 µM in assay [1], 5.3 µM in assay [2] and 11 µM in assay [3].

With `Cc1sc2ncn(CC(=O)N3CC(F)(C4CC4)C3)c(=O)c2c1-c1cccc(Br)c1`, the EC50 in assay [1] worked out at 2 µM; in assay [2] it was 3.7 µM; in assay [3], 5.4 µM.

Consider `Cc1sc2ncn(CC(=O)N3CCC(F)(F)C3)c(=O)c2c1-c1cccc(Br)c1`, for which the results for the EC50 in assay [1], in assay [2] and in assay [3] were 2.6 µM, 6.7 µM and 11.7 µM, respectively.

In the case of `Cc1sc2ncn(CC(=O)N3CCC(C)(F)C3)c(=O)c2c1-c1cccc(Br)c1` (stereo not drawn), the EC50 in assay [1] came to 2.9 µM; in assay [2], 9.1 µM; in assay [3], 13 µM.

On to `Cc1sc2ncn(CC(=O)N3CC(C)(F)C3)c(=O)c2c1-c1cccc(OC(F)(F)F)c1`, for which the values for the EC50 in assay [1], in assay [2] and in assay [3] were 1.1 µM, 2.6 µM and 4.2 µM, respectively.

Consider `Cc1sc2ncn(CC(=O)N3CC(C)C3)c(=O)c2c1-c1cccc(Br)c1`, for which the figures for the EC50 in assay [1] and in assay [2] were 7.6 µM and 12 µM, respectively.

Regarding `Cc1sc2ncn(CC(=O)N3CCC[C@@H]3C)c(=O)c2c1-c1cccc(Br)c1`, in assay [1], the EC50 came out at 21 µM.

Consider `Cc1sc2ncn(CC(=O)N3CC[C@H](F)C3)c(=O)c2c1-c1cccc(Br)c1`, for which the 50% effective concentration (EC50) was determined as 15 µM in assay [1], 12 µM in assay [2] and 25 µM in assay [3].

Turning to `Cc1sc2ncn(CC(=O)N3CC(C)(F)C3)c(=O)c2c1-c1ccc(Cl)c(Cl)c1`, the results for the EC50 in assay [1], in assay [2] and in assay [3] were 0.41 µM, 0.86 µM and 1 µM, respectively.

Consider `Cc1sc2ncn(CC(=O)N3CCC3)c(=O)c2c1-c1cccc(Br)c1`, for which the figures for the EC50 in assay [1] and in assay [2] were 23 µM and 20 µM, respectively.

Consider `Cc1sc2ncn(CC(=O)N3CC(C)(F)C3)c(=O)c2c1-c1ccc(Cl)c(F)c1`, for which the results for the EC50 in assay [1], in assay [2] and in assay [3] were 1.7 µM, 4.5 µM and 5.6 µM, respectively.

For `Cc1sc2ncn(CC(=O)N3CC(C)(F)C3)c(=O)c2c1-c1cccc(Cl)c1F`, the EC50 amounted to 2 µM in assay [1], 5.3 µM in assay [2] and 6.9 µM in assay [3].
